US8742110B2, “Spiroxazolidinone compounds” (Merck Sharp & Dohme Corp., priority 2010, dated 2014)
Counter-ions that a name gives are not always drawn.

Biological target: SSTR5 (Homo sapiens (Human), UniProt P35346)
Experiment: SSTR5 binding assay
Settings: CHO-K1 membranes expressing cloned human SSTR5
Procedure: The receptor-ligand binding assays of all 5 subtype of SSTRs were performed with membranes isolated from Chinese hamster ovary (CHO)-K1 cells stably expressing the cloned human somatostatin receptors in 96-well format as previous reported.
The stable cell lines for SSTR1-SSTR5 were developed by stably transfecting with DNA for all five SSTRs using Lipofectamine. […] The assay buffer consisted of 50 mM TrisHCl (pH 7.8) with 1 mM EGTA, […] MgCl2, leupeptin (10 μg/mL), pepstatin (10 μg/mL), bacitracin (200 μg/mL), and aprotinin (0.5 μg/mL). CHO-K1 cell membranes, radiolabeled somatostatin, and unlabeled test compounds were resuspended or diluted in this assay buffer. Unlabeled test compounds were examined over a range of concentrations from 0.01 nM to 10,000 nM.
Compounds exemplified were tested in the SSTR5 binding assay.

Sequence of SSTR5 (P35346 whole entry): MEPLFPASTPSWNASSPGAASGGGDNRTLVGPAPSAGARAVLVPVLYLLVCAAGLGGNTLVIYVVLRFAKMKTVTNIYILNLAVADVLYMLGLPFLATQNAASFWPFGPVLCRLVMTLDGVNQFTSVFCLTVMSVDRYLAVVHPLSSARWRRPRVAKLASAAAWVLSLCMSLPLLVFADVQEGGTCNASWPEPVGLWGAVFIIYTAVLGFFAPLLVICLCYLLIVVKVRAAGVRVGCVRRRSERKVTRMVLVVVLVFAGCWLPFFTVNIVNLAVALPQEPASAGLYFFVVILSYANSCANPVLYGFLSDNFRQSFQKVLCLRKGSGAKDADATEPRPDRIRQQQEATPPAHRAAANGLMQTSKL

Row | IC50 [nM] | Structure (SMILES)
1 | 2950 | Cn1cc(-c2ccc(F)c(F)c2F)c(CN2CCC3(CC2)CN(c2ccc(C(=O)O)cc2)C(=O)O3)n1 [Example 2-1, 4-(8-{[1-Methyl-4-(2,3,4-trifluorophenyl)-1H-pyrazol-3-yl]methyl}-2-oxo-1-oxa-3,8-diazaspiro[4.5]dec-3-yl)benzoic acid, TFA salt]
2 | 4320 | Cn1cc(-c2cc(F)c(F)cc2F)c(CN2CCC3(CC2)CN(c2ccc(C(=O)O)cc2)C(=O)O3)n1 [Example 2-2, 4-(8-{[1-Methyl-4-(2,4,5-trifluorophenyl)-1H-pyrazol-3-yl]methyl}-2-oxo-1-oxa-3,8-diazaspiro[4.5]dec-3-yl)benzoic acid, TFA salt]
3 | 89.3 | O=C(O)c1ccc(N2CC3(CCN(Cc4nn(Cc5ccc(Cl)cc5)cc4-c4ccc(F)c(F)c4F)CC3)OC2=O)cc1 [Example 2-3, 4-(8-{[1-(4-Chlorobenzyl)-4-(2,3,4-trifluorophenyl)-1H-pyrazol-3-yl]methyl}-2-oxo-1-oxa-3,8-diazaspiro[4.5]dec-3-yl)benzoic acid, TFA salt]
4 | 112 | O=C(O)c1ccc(N2CC3(CCN(Cc4nn(Cc5ccc(Cl)cc5)cc4-c4cc(F)c(F)cc4F)CC3)OC2=O)cc1 [Example 2-4, 4-(8-{[1-(4-Chlorobenzyl)-4-(2,4,5-trifluorophenyl)-1H-pyrazol-3-yl]methyl}-2-oxo-1-oxa-3,8-diazaspiro[4.5]dec-3-yl)benzoic acid, TFA salt]
5 | 191 | COc1c(-c2cn(C(C)C)nc2CN2CCC3(CC2)CN(c2ccc(C(=O)O)cc2)C(=O)O3)ccc(F)c1F [Example 2-5, 4-(8-{[4-(3,4-Difluoro-2-methoxyphenyl)-1-(propan-2-yl)-1H-pyrazol-3-yl]methyl}-2-oxo-1-oxa-3,8-diazaspiro[4.5]dec-3-yl)benzoic acid, TFA salt]
6 | 281 | CCCn1cc(-c2ccc(F)c(F)c2F)c(CN2CCC3(CC2)CN(c2ccc(C(=O)O)cc2)C(=O)O3)n1 [Example 2-6, 4-(2-Oxo-8-{[1-propyl-4-(2,3,4-trifluorophenyl)-1H-pyrazol-3-yl]methyl}-1-oxa-3,8-diazaspiro[4.5]dec-3-yl)benzoic acid, TFA salt]
7 | 1.83 | O=C(O)c1ccc(N2CC3(CCN(Cc4cnn(-c5ccccc5)c4-c4cc(F)c(F)cc4F)CC3)OC2=O)cc1 [Example 2-7, 4-(2-Oxo-8-{[1-phenyl-5-(2,4,5-trifluorophenyl)-1H-pyrazol-4-yl]methyl}-1-oxa-3,8-diazaspiro[4.5]dec-3-yl)benzoic acid, TFA salt]

The remaining lines, values behind:

Row | Structure (SMILES) | IC50 [nM]
8 | CC(C)(C)n1cc(CN2CCC3(CC2)CN(c2ccc(-c4nn[nH]n4)cc2)C(=O)O3)c(-c2cc(F)c(Cl)cc2F)n1 [Example 1-29, 8-{[1-tert-Butyl-3-(4-chloro-2,5-difluorophenyl)-1H-pyrazol-4-yl]methyl}-3-[4-(2H-tetrazol-5-yl)phenyl]-1-oxa-3,8-diazaspiro[4.5]decan-2-one, TFA salt] | 0.582
9 | CC(C)(C)n1cc(CN2CCC3(CC2)CN(c2ccc(C(=O)O)cc2)C(=O)O3)c(-c2ccc(F)cc2F)n1 [Example 1-30, 4-(8-{[1-tert-Butyl-3-(2,4-difluorophenyl)-1H-pyrazol-4-yl]methyl}-2-oxo-1-oxa-3,8-diazaspiro[4.5]dec-3-yl)benzoic acid, TFA salt] | 1.95
10 | CC(C)(C)n1cc(CN2CCC3(CC2)CN(c2ccc(C(=O)O)cc2)C(=O)O3)c(-c2cc(F)c(Cl)cc2F)n1 [Example 1-31, 4-(8-{[1-tert-Butyl-3-(4-chloro-2,5-difluorophenyl)-1H-pyrazol-4-yl]methyl}-2-oxo-1-oxa-3,8-diazaspiro[4.5]dec-3-yl)benzoic acid, TFA salt] | 2.09
11 | COc1ccc(-c2nn(C(C)(C)C)cc2CN2CCC3(CC2)CN(c2ccc(C(=O)O)cc2)C(=O)O3)c(F)c1 [Example 1-32, 4-(8-{[1-tert-Butyl-3-(2-fluoro-4-methoxyphenyl)-1H-pyrazol-4-yl]methyl}-2-oxo-1-oxa-3,8-diazaspiro[4.5]dec-3-yl)benzoic acid, TFA salt] | 2.05
12 | O=C(O)c1ccc(N2CC3(CCN(Cc4cn(C5CCCCC5)nc4-c4cc(F)c(F)cc4F)CC3)OC2=O)cc1 [Example 1-33, 4-(8-{[1-Cyclohexyl-3-(2,4,5-trifluorophenyl)-1H-pyrazol-4-yl]methyl}-2-oxo-1-oxa-3,8-diazaspiro[4.5]dec-3-yl)benzoic acid, TFA salt] | 1.29
13 | O=C(O)c1ccc(N2CC3(CCN(Cc4cn(-c5ccccc5)nc4-c4ccc(F)c(Cl)c4)CC3)OC2=O)cc1 [Example 1-34, 4-(8-{[3-(3-Chloro-4-fluorophenyl)-1-phenyl-1H-pyrazol-4-yl]methyl}-2-oxo-1-oxa-3,8-diazaspiro[4.5]dec-3-yl)benzoic acid, TFA salt] | 4.67
14 | CC(C)(C)c1nn(-c2ccc(F)cc2)cc1CN1CCC2(CC1)CN(c1ccc(C(=O)O)cc1)C(=O)O2 [Example 1-35, 4-(8-{[3-tert-Butyl-1-(4-fluorophenyl)-1H-pyrazol-4-yl]methyl}-2-oxo-1-oxa-3,8-diazaspiro[4.5]dec-3-yl)benzoic acid, TFA salt] | 36.2
15 | CCOc1nn(C(C)(C)C)cc1CN1CCC2(CC1)CN(c1ccc(C(=O)O)cc1)C(=O)O2 [Example 1-36, 4-{8-[(1-tert-Butyl-3-ethoxy-1H-pyrazol-4-yl)methyl]-2-oxo-1-oxa-3,8-diazaspiro[4.5]dec-3-yl}benzoic acid, TFA salt] | 509
16 | Cc1cc(C(=O)O)ccc1N1CC2(CCN(Cc3cn(C(C)(C)C)nc3-c3ccc(F)c(F)c3F)CC2)OC1=O [Example 1-37, 4-(8-{[1-tert-Butyl-3-(2,3,4-trifluorophenyl)-1H-pyrazol-4-yl]methyl}-2-oxo-1-oxa-3,8-diazaspiro[4.5]dec-3-yl)-3-methylbenzoic acid, TFA salt] | 1.59
17 | CC(C)(C)Cn1cc(CN2CCC3(CC2)CN(c2ccc(C(=O)O)cc2)C(=O)O3)c(-c2ccc(F)c(Cl)c2)n1 [Example 1-38, 4-(8-{[3-(3-Chloro-4-fluorophenyl)-1-(2,2-dimethylpropyl)-1H-pyrazol-4-yl]methyl}-2-oxo-1-oxa-3,8-diazaspiro[4.5]dec-3-yl)benzoic acid, TFA salt] | 5.29
18 | O=C(O)c1ccc(N2CC3(CCN(Cc4c(-c5cc(F)c(F)cc5F)nn(-c5ccccc5)c4Cl)CC3)OC2=O)cc1 [Example 1-39, 4-(8-{[5-Chloro-1-phenyl-3-(2,4,5-trifluorophenyl)-1H-pyrazol-4-yl]methyl}-2-oxo-1-oxa-3,8-diazaspiro[4.5]dec-3-yl)benzoic acid, TFA salt] | 44.6
19 | CCCCn1cc(CN2CCC3(CC2)CN(c2ccc(C(=O)O)cc2)C(=O)O3)c(Cc2cc(F)c(F)cc2F)n1 [Example 1-40, 4-(8-{[1-Butyl-3-(2,4,5-trifluorobenzyl)-1H-pyrazol-4-yl]methyl}-2-oxo-1-oxa-3,8-diazaspiro[4.5]dec-3-yl)benzoic acid, TFA salt] | 8.34
20 | O=C(O)c1ccc(N2CC3(CCN(Cc4cn(CC(F)(F)F)nc4-c4ccc(F)c(F)c4F)CC3)OC2=O)cc1 [Example 1-41, 4-(2-Oxo-8-{[1-(2,2,2-trifluoroethyl)-3-(2,3,4-trifluorophenyl)-1H-pyrazol-4-yl]methyl}-1-oxa-3,8-diazaspiro[4.5]dec-3-yl)benzoic acid, TFA salt] | 10.4
21 | CC(C)(C)n1cc(CN2CCC3(CC2)CN(c2ccc(C(=O)O)c(F)c2)C(=O)O3)c(-c2ccc(F)c(F)c2F)n1 [Example 1-42, 4-(8-{[1-tert-Butyl-3-(2,3,4-trifluorophenyl)-1H-pyrazol-4-yl]methyl}-2-oxo-1-oxa-3,8-diazaspiro[4.5]dec-3-yl)-2-fluorobenzoic acid, TFA salt] | 4.68
22 | CC(C)(C)n1cc(CN2CCC3(CC2)CN(c2ccc(C(=O)O)cn2)C(=O)O3)c(-c2ccc(F)c(F)c2F)n1 [Example 1-43, 6-(8-{[1-tert-Butyl-3-(2,3,4-trifluorophenyl)-1H-pyrazol-4-yl]methyl}-2-oxo-1-oxa-3,8-diazaspiro[4.5]dec-3-yl)pyridine-3-carboxylic acid, TFA salt] | 2.88
23 | CCCCn1nc(Cc2cc(F)c(F)cc2F)c(CN2CCC3(CC2)CN(c2ccc(C(=O)O)cc2)C(=O)O3)c1Cl [Example 1-44, 4-(8-{[5-Chloro-1-butyl-3-(2,4,5-trifluorobenzyl)-1H-pyrazol-4-yl]methyl}-2-oxo-1-oxa-3,8-diazaspiro[4.5]dec-3-yl)benzoic acid, TFA salt] | 14.3
24 | CC(C)n1nc(Cc2cc(F)c(F)cc2F)c(CN2CCC3(CC2)CN(c2ccc(C(=O)O)cc2)C(=O)O3)c1Cl [Example 1-45, 4-(8-{[5-Chloro-1-(propan-2-yl)-3-(2,4,5-trifluorobenzyl)-1H-pyrazol-4-yl]methyl}-2-oxo-1-oxa-3,8-diazaspiro[4.5]dec-3-yl)benzoic acid, TFA salt] | 23
25 | CCCn1nc(Cc2cc(F)c(F)cc2F)c(CN2CCC3(CC2)CN(c2ccc(C(=O)O)cc2)C(=O)O3)c1Cl [Example 1-46, 4-(8-{[5-Chloro-1-propyl-3-(2,4,5-trifluorobenzyl)-1H-pyrazol-4-yl]methyl}-2-oxo-1-oxa-3,8-diazaspiro[4.5]dec-3-yl)benzoic acid, TFA salt] | 40.9
26 | O=C(O)c1ccc(N2CC3(CCN(Cc4c(Cc5cc(F)c(F)cc5F)nn(-c5ccccc5)c4Cl)CC3)OC2=O)cc1 [Example 1-47, 4-(8-{[5-Chloro-1-phenyl-3-(2,4,5-trifluorobenzyl)-1H-pyrazol-4-yl]methyl}-2-oxo-1-oxa-3,8-diazaspiro[4.5]dec-3-yl)benzoic acid, TFA salt] | 79
